# Results from EP0138358A1, “The preparation and use of 2-[2-(1,4-benzodioxanyl)]-2-imidazoline in therapy” (Farmos-Yhtyma Oy, priority 1983, dated 1985).
# Assays:
# Assay type in all cases: in vivo
# Horses (4) = assay: Awakening from detomidine-induced sedation, horses; details: detomidine 0.04-0.06 mg/kg i.m., compound (I) i.v. after 30 min, dose five times greater than that of detomidine
# Description: (§1) Trials were carried out as follows: • (A) A dose of 0.04-0.06 mg/kg of detomidine was injected i.m. into the test animals. After exactly 30 min. compound (I) was given intravenously. The awakening of the animal or its recovery from the sedation was then observed. Calves (8) and Cows (7) recovered from detomidine-induced sedation in 2 to 5 minutes from the injection of compound (I). Horses (4) awoke in 5 to 10 min. The awakening effect of compound (I) was found stable for both species. […] For the calves and cows, the dose of compound (I) was the same as the dose of detomidine. For the horses, the dose of compound (I) was five times greater than that of detomidine. • (B) A dose of 2 mg/kg of xylazine was injected i.m. into 10 dogs. This injection induced sedation which lasted for 0.5 - 1 hr. During this time the dogs were able to walk only with difficulty.
# dogs = assay: Awakening from xylazine-induced sedation in dogs; details: compound (I) 0.1 - 0.3 mg/kg i.v. 20 min. after 2 mg/kg of xylazine
# Description: In other experiments compound (I) was given at a dose of 0.1 - 0.3 mg/kg i.v. 20 min. after the injection of 2 mg/kg of xylazine. The awakening of the dogs and their recovery from the sedation was observed. The dogs recovered from the xylazine-induced sedation in 2 - 3 minutes after the administration of compound (I).
# rats [1] = assay: Inhibition of the sedative effect of 4-(2,6-dimethylbenzyl)imidazole in rats (spontaneous locomotor activity, activity meter); details: compound (I) 1-3 mg/kg i.v. or i.p., 15 minutes after 4-(2,6-dimethylbenzyl)imidazole
# Description: (§2) (C) The following tests concerning the sedative effect of 4-(2,6-dimethylbenzyl)imidazole and the inhibition of this effect with compound (I) were carried out in rats.
# In other tests, compound (I) was given i.v. or i.p. to rats at a dose of 1-3 mg/kg, 15 minutes after the administration of 4-(2,6-dimethylbenzyl)imidazole. The recovery of the animals from the sedation was observed by measuring their spontaneous locomotor activity with an activity meter.
# Calves (8) and Cows (7) = assay: Awakening from detomidine-induced sedation, calves and cows; details: detomidine 0.04-0.06 mg/kg i.m., compound (I) i.v. after 30 min, same dose as detomidine
# Description: as §1
# horses and cattle = assay: Sedative and analgesic effect of detomidine in horses and cattle; details: i.m. or i.v.
# Source text: This invention relates to the preparation of 2-[2-(1,4-benzodioxanyl)]-2-imidazoline, and to its use. Detomidine, which has the formula [drawing 1] is a known compound with sedative and analgesic effect in animals. The potency and the duration of the effect can be regulated by the dosage. The compound is very potent; dosages as small as […] given by injection provide a clinical response. Detomidine is used in veterinary medicine especially in the handling of horses and cattle (pharmacological restraint). The animal is sedated before investigation, treatment and difficult medical operations. Even small surgical operations cannot be carried out without the use of a sedative agent.
# The analgesic effect is dose dependent. […] Table 1: The effect of detomidine in horses and cattle. Dosage i.m. or i.v.
# rats [2] = assay: Sedative effect (loss of the righting reflex) in rats; details: 10 rats; dose of 0.5 mg/kg
# Description: as §2
# A dose of 0.5 mg/kg of 4-(2,6-dimethylbenzyl) imidazole was injected into 10 rats. This dose induced loss of the righting reflex for 1 h.
smiles,measurement,setting,value
"c1ccc2c(c1)OCC(C1=NCCN1)O2 (stereo not drawn) [compound (I), 2-[2-(1,4-benzodioxanyl)]-imidazoline]",awakening effect,Horses (4),stable
same,side-effects,Horses (4),No side-effects were observed
same,awakening effect,dogs,stable
same,side-effects,dogs,No side-effects were observed
same,"counteraction of the sedative effect of 4-(2,6-dimethylbenzyl)imidazole",rats [1],fully counteract
same,"time to counteract the sedative effect of 4-(2,6-dimethylbenzyl)imidazole after the administration of compound (I)",rats [1],1 to 5 min
same,awakening effect,Calves (8) and Cows (7),stable
same,side-effects,Calves (8) and Cows (7),No side-effects were observed
"Cc1cccc(Cc2c[nH]cn2)c1C [detomidine, Detomidine]",Delay before the effect begins,horses and cattle; dose 20-40 µg/kg,3 to 5 min
same,Effect,horses and cattle; dose 20-40 µg/kg,easy to handle; short effect
same,Other effects,horses and cattle; dose 20-40 µg/kg,slight stagger-ing
same,Delay before the effect begins,horses and cattle; dose 40-80 µg/kg,2 to 5 min
same,Effect,horses and cattle; dose 40-80 µg/kg,strong effect
same,Other effects,horses and cattle; dose 40-80 µg/kg,"stagger-ing, sweating pilo-erection, muscular tremor"
same,Delay before the effect begins,horses and cattle; dose 80-150 µg/kg,1 to 5 min
same,Duration of the effect,horses and cattle; dose 80-150 µg/kg,2 to 6 h
same,Other effects,horses and cattle; dose 80-150 µg/kg,"Strong stagger-ing, pilo-erection, sweating, diuresis"
"Cc1cccc(C)c1Cc1c[nH]cn1 [4-(2,6-dimethylbenzyl) imidazole, 4-(2,6-dimethylbenzyl)imidazole]",duration of loss of the righting reflex,rats [2],1 h
